The values that follow are results of earlier work, collected in patent US6391342B1, “Pharmaceutical formulation comprising a 2- [(2-pyridinyl) methyl] sulfinyl benzimidazole having anti-ulcer activity and a process for the preparation of such formulation” (A/S GEA Farmaceutisk Fabrik, priority 1998, dated 2002).

SMILES strings stand for the structures. Like-named read-outs stand apart in the source and are kept apart here.

Consider `COc1ccc2[nH]c([S+]([O-])Cc3ncc(C)c(OC)c3C)nc2c1` (stereo not drawn) [omeprazole, 5-methoxy-2-[[(4-methoxy-3,5-dimethyl-2-pyridinyl)methyl]sulfinyl]-1H-benzimidazole], for which, for the setting “acids”, the stability to acids result is “sensible to acids”. Besides, the solubility result by setting is: (in alkaline solutions) “very soluble”; (in water) “only slightly soluble”.
